Test results published in patent US20200131196A1 (Mount Tam Therapeutics, Inc., priority 2017, published 2020).

Key:
CAMA-1 = assay: OncoPanel cell proliferation assay, CAMA-1
Procedure: (§5) Cells were seeded into 384-well plates and incubated in a humidified atmosphere of 5% CO2 at 37° C. Compounds were added the day following cell seeding. At the same time, a time zero untreated cell plate was generated. After a 3-day incubation period, cells were fixed and stained to allow fluorescence imaging of nuclei. Compounds (1 mM stock solutions) were serially diluted in half-log steps from the highest test concentration (1 micromol), and assayed over 10 concentrations with a maximum assay concentration of 0.1% DMSO. Automated fluorescence microscopy was carried out using a Molecular Devices ImageXpress Micro XL high-content imager, and images were collected with a 4× objective. 16-bit TIFF images were acquired and analyzed with MetaXpress 5.1.0.41 software.
(§6) GI50 is the concentration needed to reduce the observed growth by half (midway between the curve maximum and the time zero value). […] In rare instances, values <0 or >10 may be observed. […] Curve-fitting, calculations, and report generation was performed using a custom data reduction engine and MathIQ based software (AIM).

786-O = assay: OncoPanel cell proliferation assay, 786-O; type: cell-based, human; settings: 786-O
Procedure: (§1) Cells were grown in RPMI 1640, 10% FBS, 2 mM L-alanyl-L-glutamine, 1 mM Na pyruvate, or a special medium. Cells were seeded into 384-well plates and incubated in a humidified atmosphere of 5% CO2 at 37° C. Compounds were added the day following cell seeding. At the same time, a time zero untreated cell plate was generated. After a 3-day incubation period, cells were fixed and stained to allow fluorescence imaging of nuclei. Compounds (1 mM stock solutions) were serially diluted in half-log steps from the highest test concentration ([…]), and assayed over 10 concentrations with a maximum assay concentration of 0.1% DMSO. Automated fluorescence microscopy was carried out using a Molecular Devices ImageXpress Micro XL high-content imager, and images were collected with a 4× objective. 16-bit TIFF images were acquired and analyzed with MetaXpress 5.1.0.41 software.
(§2) Cell proliferation was measured by the fluorescence intensity of an incorporated nuclear dye. The output is referred to as the relative cell count, where the measured nuclear intensity is transformed to percent of control (POC) using the following formula: […]
(§3) Cellular response parameters were calculated using nonlinear regression to a sigmoidal single-site dose response model:
(§4) EC50 is the test compound concentration at the curve inflection point or half the effective response (parameter C of the fitted curve solution). GI50 is the concentration needed to reduce the observed growth by half (midway between the curve maximum and the time zero value). “Cell Count Activity Area” is an estimate of the integrated area above the curve (Barretina, et al. The Cancer Cell Line Encyclopedia enables predictive modelling of anticancer drug sensitivity. Nature 483: 603-607). […] In rare instances, values <0 or >10 may be observed. […] Curve-fitting, calculations, and report generation was performed using a custom data reduction engine and MathIQ based software (AIM).

CEM-C1 = assay: OncoPanel cell proliferation assay, CEM-C1; type: cell-based, human
Procedure: as §1, §2, §3, §4

CRO-AP2 = assay: OncoPanel cell proliferation assay, CRO-AP2; type: cell-based, human
Procedure: as §1, §2, §3, §4

CHP-212 = assay: OncoPanel cell proliferation assay, CHP-212
Procedure: as §5, §6

SHP-77 = assay: OncoPanel cell proliferation assay, SHP-77
Procedure: as §5, §6

SK-UT-1 = assay: OncoPanel cell proliferation assay, SK-UT-1
Procedure: as §5, §6

RKOE6 = assay: OncoPanel cell proliferation assay, RKOE6
Procedure: as §5, §6

SK-NEP-1 = assay: OncoPanel cell proliferation assay, SK-NEP-1
Procedure: as §5, §6

TF-1 = assay: OncoPanel cell proliferation assay, TF-1; type: cell-based, human
Procedure: as §1, §2, §3, §4

G-402 = assay: OncoPanel cell proliferation assay, G-402; type: cell-based, human
Procedure: as §1, §2, §3, §4

[1] = Homo sapiens, read-out: Cell Count EC50
[2] = Homo sapiens, read-out: Cell Count GI50
[3] = Homo sapiens, read-out: Cell Count IC50

`CO[C@H]1C[C@@H]2CC[C@@H](C)[C@@](O)(O2)C(=O)C(=O)N2CCCC[C@H]2C(=O)O[C@H]([C@H](C)C[C@@H]2CC[C@@H](O)[C@H](OC)C2)CC(=O)[C@H](C)/C=C(\C)[C@@H](O)[C@@H](OC)C(=O)[C@H](C)C[C@H](C)/C=C/C=C/C=C/1C` [Rapamycin, reference compound] was tested, and the “Cell Count Activity Area” value (CAMA-1; CAMA-1) was 4.07, the EC50 (CAMA-1; Homo sapiens, CAMA-1, read-out: Cell Count EC50) was 0.194 nM and the IC50 (CAMA-1; Homo sapiens, CAMA-1, read-out: Cell Count IC50) was 1.19 nM. The “Cell Count Activity Area” value (786-O) was 4.17, the EC50 (786-O; Homo sapiens, 786-0, read-out: Cell Count EC50) was 0.227 nM and the GI50 (786-O; Homo sapiens, 786-0, read-out: Cell Count GI50) was 1.13 nM. The IC50 (786-O; Homo sapiens, 786-0, read-out: Cell Count IC50) was 3.18 nM, the “Cell Count Activity Area” value (CEM-C1) was 3.61 and the EC50 (CEM-C1; [1]) was 0.265 nM. For the same compound, the GI50 (CEM-C1; [2]) was 4.36 nM, the IC50 (CEM-C1; [3]) was greater than 1000 nM and the “Cell Count Activity Area” value (CRO-AP2) was 6.22. The EC50 (CRO-AP2; [1]) was 0.119 nM, the GI50 (CRO-AP2; [2]) was 0.155 nM and the IC50 (CRO-AP2; [3]) was 0.187 nM. The “Cell Count Activity Area” value (CHP-212; CHP-212) was 4.13, the EC50 (CHP-212; Homo sapiens, CHP-212, read-out: Cell Count EC50) was 0.0376 nM and the GI50 (CHP-212; Homo sapiens, CHP-212, read-out: Cell Count GI50) was 0.0707 nM. It also gave an IC50 (CHP-212; Homo sapiens, CHP-212, read-out: Cell Count IC50) greater than 1000 nM, an EC50 (SHP-77; Homo sapiens, SHP77, read-out: Cell Count EC50) greater than 1000 nM and a GI50 (SHP-77; Homo sapiens, SHP77, read-out: Cell Count GI50) greater than 1000 nM. The IC50 (SHP-77; Homo sapiens, SHP77, read-out: Cell Count IC50) was greater than 1000 nM, the “Cell Count Activity Area” value (SHP-77; SHP-77) was 1.13 and the EC50 (SK-UT-1; Homo sapiens, SK-UT-1, read-out: Cell Count EC50) was 0.2 nM. For the same compound, the GI50 (SK-UT-1; Homo sapiens, SK-UT-1, read-out: Cell Count GI50) was greater than 1000 nM, the IC50 (SK-UT-1; Homo sapiens, SK-UT-1, read-out: Cell Count IC50) was greater than 1000 nM and the “Cell Count Activity Area” value (SK-UT-1; SK-UT-1) was 3.23. The EC50 (RKOE6; Homo sapiens, RKOE6, read-out: Cell Count EC50) was 0.0835 nM, the GI50 (RKOE6; Homo sapiens, RKOE6, read-out: Cell Count GI50) was 0.356 nM and the IC50 (RKOE6; Homo sapiens, RKOE6, read-out: Cell Count IC50) was 1.06 nM. For the same compound, the “Cell Count Activity Area” value (RKOE6; RKOE6) was 4.61, the EC50 (SK-NEP-1; Homo sapiens, SK-NEP-1, read-out: Cell Count EC50) was 0.293 nM and the GI50 (SK-NEP-1; Homo sapiens, SK-NEP-1, read-out: Cell Count GI50) was 0.361 nM. For the same compound, the IC50 (SK-NEP-1; Homo sapiens, SK-NEP-1, read-out: Cell Count IC50) was 1.47 nM, the “Cell Count Activity Area” value (SK-NEP-1; SK-NEP-1) was 4.22 and the “Cell Count Activity Area” value (TF-1) was 1.52. It also gave an EC50 (TF-1; [1]) greater than 1000 nM, a GI50 (TF-1; [2]) greater than 1000 nM and an IC50 (TF-1; [3]) greater than 1000 nM. The “Cell Count Activity Area” value (G-402) was 4.68, the EC50 (G-402; [1]) was 0.111 nM and the GI50 (G-402; [2]) was 0.182 nM. For the same compound, the IC50 (G-402; [3]) was 0.334 nM.
